Data published in article PMC10584170, “Machine learning-based phenotypic imaging to characterise the targetable biology of Plasmodium falciparum male gametocytes for the development of transmission-blocking antimalarials” (PLOS Pathogens, 2023).

Columns and labels:
[1] = system: P. falciparum male gametocytes; assay: P. falciparum Dual Gamete Formation Assay (PfDGFA), male readout (exflagellation); assay type: cell-based, Plasmodium falciparum NF54; conditions: for Average inhibition male (%) / % inhibition male (individual replicates) R1 / % inhibition male (individual replicates) R3 / % inhibition male (individual replicates) R4: 24h preincubation with gametocytes; for Average inhibition male (%): average of replicates; for % inhibition male (individual replicates) R1: replicate R1; for % inhibition male (individual replicates) R3: replicate R3; for % inhibition male (individual replicates) R4: replicate R4; for Selectivity Ratio M: HepG2 Tox50 versus male IC50; for IC50: PfDGFA, 24 h incubation with gametocytes before induction, exflagellation readout, read-out: Male IC50; for HitlevelM: number of replicates with >50% inhibition in the male readout
Procedure, shortened: (§1)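 NF54 mature gametocytes (d14), cpd 24 h 37°C hypoxic gas; trigger: xanthurenic acid ookinete medium + Cy3 anti-Pfs25, 4°C 4 min → 28°C 4 min. Male: exflagellation centres, brightfield x6. Female: Pfs25+ gametes, fluorescence, +24 h 28°C dark.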

HepG2 cells = assay: HepG2 cytotoxicity counter-screen; conditions: cytotoxic activity against HepG2 cells
[2] = system: P. falciparum female gametocytes; assay: P. falciparum Dual Gamete Formation Assay (PfDGFA), female readout (Pfs25-positive female gametes); assay type: cell-based, Plasmodium falciparum NF54; conditions: for Average inhibition female (%) / % inhibition female (individual replicates) R1 / % inhibition female (individual replicates) R3 / % inhibition female (individual replicates) R4: 24h preincubation with gametocytes; for Average inhibition female (%): average of replicates; for % inhibition female (individual replicates) R1: replicate R1; for % inhibition female (individual replicates) R3: replicate R3; for % inhibition female (individual replicates) R4: replicate R4; for Selectivity ratio F: HepG2 Tox50 versus female IC50; for IC50: PfDGFA, 24 h incubation with gametocytes before induction, female gamete readout, read-out: Female IC50; for HitlevelF: number of replicates with >50% inhibition in the female readout
Procedure, shortened: as §1

CS(=O)(=O)O.c1ccc2c(CNCCCCCCNCc3c(OCC4CC4)ccc4ccccc34)c(OCC3CC3)ccc2c1 [TCMDC-137839]
Average inhibition male (%) ([1]; 2µM): 95.2%
% inhibition male (individual replicates) R1 ([1]; 2µM): 96.4%
% inhibition male (individual replicates) R3 ([1]; 2µM): 98.9%
% inhibition male (individual replicates) R4 ([1]; 2µM): 103.0%
Selectivity Ratio M [1]: 2.29
IC50 [1]: 1400 nM
Tox50 (HepG2 cells): 3.2 µM
Average inhibition female (%) ([2]; 2µM): 78.7%
% inhibition female (individual replicates) R1 ([2]; 2µM): 59.7%
% inhibition female (individual replicates) R3 ([2]; 2µM): 91.2%
% inhibition female (individual replicates) R4 ([2]; 2µM): 88.3%
Selectivity ratio F [2]: 1.36
IC50 [2]: 2360 nM

Nc1nc(N)c2c(ccc3[nH]c(-c4ccccc4Cl)nc32)n1 [TCMDC-137840]
Average inhibition male (%) ([1]; 2µM): 99.1%
% inhibition male (individual replicates) R1 ([1]; 2µM): 101.1%
% inhibition male (individual replicates) R3 ([1]; 2µM): 94.6%
% inhibition male (individual replicates) R4 ([1]; 2µM): 101.3%
Selectivity Ratio M [1]: 2.01
IC50 [1]: 1020 nM
Tox50 (HepG2 cells): 2.04 µM
Average inhibition female (%) ([2]; 2µM): 54.2%
% inhibition female (individual replicates) R1 ([2]; 2µM): 66.8%
% inhibition female (individual replicates) R3 ([2]; 2µM): 50.3%
% inhibition female (individual replicates) R4 ([2]; 2µM): 52.5%
Selectivity ratio F [2]: 0.88
IC50 [2]: 2320 nM

COc1cc2ccccc2c(OC)c1CNCCCCCCNCc1c(OC)cc2ccccc2c1OC.CS(=O)(=O)O [TCMDC-137843]
Selectivity Ratio M [1]: 2.16
Average inhibition male (%) ([1]; PfDGFA at 2µM): 82.6%
% inhibition male (individual replicates) R1 ([1]; PfDGFA at 2µM): 82.1%
% inhibition male (individual replicates) R3 ([1]; PfDGFA at 2µM): 58.2%
% inhibition male (individual replicates) R4 ([1]; PfDGFA at 2µM): 98.9%
IC50 [1]: 1660 nM
HitlevelM ([1]; 2µM): 4
Tox50 (HepG2 cells): 3.59 µM
Selectivity ratio F [2]: 0.88
Average inhibition female (%) ([2]; PfDGFA at 2µM): 38.4%
% inhibition female (individual replicates) R1 ([2]; PfDGFA at 2µM): 31.9%
% inhibition female (individual replicates) R3 ([2]; PfDGFA at 2µM): 18.8%
% inhibition female (individual replicates) R4 ([2]; PfDGFA at 2µM): 37.8%
IC50 [2]: 4090 nM
HitlevelF ([2]; 2µM): 1

CCCCOc1c(CCNCCCCNCCc2cc(OC)c3ccccc3c2OCCCC)cc(OC)c2ccccc12.CS(=O)(=O)O [TCMDC-137848]
Selectivity Ratio M [1]: 2.01
Average inhibition male (%) ([1]; PfDGFA at 2µM): 82.6%
% inhibition male (individual replicates) R1 ([1]; PfDGFA at 2µM): 89.8%
% inhibition male (individual replicates) R3 ([1]; PfDGFA at 2µM): 50.4%
% inhibition male (individual replicates) R4 ([1]; PfDGFA at 2µM): 92.9%
IC50 [1]: 1570 nM
HitlevelM ([1]; 2µM): 4
Tox50 (HepG2 cells): 3.16 µM
Selectivity ratio F [2]: 2.45
Average inhibition female (%) ([2]; PfDGFA at 2µM): 42.4%
% inhibition female (individual replicates) R1 ([2]; PfDGFA at 2µM): 32.5%
% inhibition female (individual replicates) R3 ([2]; PfDGFA at 2µM): 23.0%
% inhibition female (individual replicates) R4 ([2]; PfDGFA at 2µM): 45.3%
IC50 [2]: 1290 nM
HitlevelF ([2]; 2µM): 1
